In patent US8716296B2 (Ingenium Pharmaceuticals GmbH, priority 2007, dated 2014):
Where a name gives a salt, the structure may show the parent alone.

test system: not given; experiment: not given; conditions: not given

Q: For COc1ccc(F)cc1-c1cc(NC(=O)C2CCCCN2)ncn1 (centres unmarked) (as salt: TFA) [Example 37, N-(6-(5-fluoro-2-methoxyphenyl)pyrimidin-4-yl)piperidine-2-carboxamide*TFA], which melting point is on record?
A: 122 °C

Q: With COc1ccc(F)cc1-c1cc(NC(=O)C2CCC(N)CC2)ncn1 (centres unmarked) (as salt: TFA) [Example 38, 4-amino-N-(6-(5-fluoro-2-methoxyphenyl)pyrimidin-4-yl)cyclohexanecarboxamide*TFA] as the compound, how does the melting point read?
A: 162 °C

Q: Which melting point does the source give for COc1ccccc1-c1cc(NC(=O)[C@H]2CCCNC2)ncn1 [Compound 17A, (S)-Piperidine-3-carboxylic acid [6-(2-methoxy-phenyl)-pyrimidin-4-yl]-amide] here?
A: 163 to 165 °C

Q: Which melting point does the source give for COc1ccccc1-c1cc(NC(=O)[C@@H]2CCCNC2)ncn1 [Compound 18A, (R)-Piperidine-3-carboxylic acid [6-(2-methoxy-phenyl)-pyrimidin-4-yl]-amide] here?
A: 210 to 213 °C

Q: For COc1ccccc1-c1cc(NC(=O)C2CCCNC2)nc(C)n1 (centres unmarked) [Compound 22A, piperidine-3-carboxylic acid [6-(2-methoxy-phenyl)-2-methyl-pyrimidin-4-yl]-amide], which melting point is on record?
A: 229 to 230 °C

Q: Which melting point does the source give for COc1ccc(F)cc1-c1cc(NC(=O)C2(C(N)=O)CC2)ncn1 [Example 10, N-(6-(5-fluoro-2-methoxyphenyl)pyrimidin-4-yl)cyclopropane-1,1-dicarboxamide] here?
A: 190 °C

Q: Which melting point does the source give for CCCN1N=C(C(=O)Nc2cc(-c3cc(F)ccc3OC)ncn2)CCC1=O [Example 11, N-(6-(5-fluoro-2-methoxyphenyl)pyrimidin-4-yl)-1,4,5,6-tetrahydro-6-oxo-1-propylpyridazine-3-carboxamide] here?
A: 200 °C

Q: With COc1cc(F)ccc1-c1cc(NC(=O)C2CCC(=O)NC2)ncn1 (centres unmarked) [Example 14, N-(6-(4-fluoro-2-methoxyphenyl)pyrimidin-4-yl)-6-oxopiperidine-3-carboxamide] as the compound, how does the melting point read?
A: 148 °C

Q: For CCOc1ccccc1-c1cc(NC(=O)C2CCC(=O)NC2)ncn1 (centres unmarked) [Example 15, N-(6-(2-ethoxyphenyl)pyrimidin-4-yl)-6-oxopiperidine-3-carboxamide], which melting point is on record?
A: 117 °C

Q: Which melting point does the source give for CCOc1ccc(F)cc1-c1cc(NC(=O)C2CCC(=O)NC2)ncn1 (centres unmarked) [Example 16, N-(6-(2-ethoxy-5-fluorophenyl)pyrimidin-4-yl)-6-oxopiperidine-3-carboxamide] here?
A: 208 °C

Q: For COc1ccc(F)cc1-c1cc(NC(=O)C2CCC(=O)NC2)ncn1 (centres unmarked) [Example 17, N-(6-(5-fluoro-2-methoxyphenyl)pyrimidin-4-yl)-6-oxopiperidine-3-carboxamide], which melting point is on record?
A: 245 °C

Q: For COc1ccc(F)cc1-c1cc(NC(=O)C2CNC(=O)C2)ncn1 (centres unmarked) [Example 18, N-(6-(5-fluoro-2-methoxyphenyl)pyrimidin-4-yl)-5-oxopyrrolidine-3-carboxamide], which melting point is on record?
A: 222 °C

Q: For COc1ccc(F)cc1-c1cc(NC(=O)C2CC(=O)NC(=O)C2)ncn1 [Example 19, N-(6-(5-fluoro-2-methoxyphenyl)pyrimidin-4-yl)-2,6-dioxopiperidine-4-carboxamide], which melting point is on record?
A: 160 °C

Q: Which melting point does the source give for CCOc1cc(F)ccc1-c1cc(NC(=O)C2CCC(=O)NC2)ncn1 (centres unmarked) [Example 24, N-(6-(2-ethoxy-4-fluorophenyl)pyrimidin-4-yl)-6-oxopiperidine-3-carboxamide] here?
A: 222 °C

Q: With CC(C)Oc1cc(F)ccc1-c1cc(NC(=O)C2CCC(=O)NC2)ncn1 (centres unmarked) [Example 25, N-(6-(4-fluoro-2-isopropoxyphenyl)pyrimidin-4-yl)-6-oxopiperidine-3-carboxamide] as the compound, how does the melting point read?
A: 105 °C

Q: Which melting point does the source give for CC(C)Oc1ccc(F)cc1-c1cc(NC(=O)C2CCC(=O)NC2)ncn1 (centres unmarked) [Example 26, N-(6-(5-fluoro-2-isopropoxyphenyl)pyrimidin-4-yl)-6-oxopiperidine-3-carboxamide] here?
A: 236 °C

Q: With COc1ccc(F)cc1-c1cc(NC(=O)C2CCOCC2)ncn1 [Example 39, N-(6-(5-fluoro-2-methoxyphenyl)pyrimidin-4-yl)-tetrahydro-2H-pyran-4-carboxamide] as the compound, how does the melting point read?
A: 155 °C

Q: With COc1ccc(F)cc1-c1cc(NC(=O)C2CCNC(=O)C2)ncn1 (centres unmarked) [Example 40, N-(6-(5-fluoro-2-methoxyphenyl)pyrimidin-4-yl)-2-oxopiperidine-4-carboxamide] as the compound, how does the melting point read?
A: 225 °C

Q: Which melting point does the source give for COc1ccc(F)cc1-c1cc(NC(=O)C2CCCNC2=O)ncn1 (centres unmarked) [Example 41, N-(6-(5-fluoro-2-methoxyphenyl)pyrimidin-4-yl)-2-oxopiperidine-3-carboxamide] here?
A: 180 °C

Q: With COc1ccc(F)cc1-c1cc(NC(=O)[C@H]2CCCC[C@H]2N)ncn1.Cl [Example 46, (1S,2R)-2-amino-N-(6-(5-fluoro-2-methoxyphenyl)pyrimidin-4-yl)cyclohexanecarboxamide*HCl] as the compound, how does the melting point read?
A: 272 °C

Q: For COc1ccc(F)cc1-c1cc(NC(=O)c2cc(C)on2)ncn1 [Example 55, N-(6-(5-fluoro-2-methoxyphenyl)pyrimidin-4-yl)-5-methylisoxazole-3-carboxamide], which melting point is on record?
A: 170 °C

Q: Which melting point does the source give for CCc1ccc(C(=O)Nc2cc(-c3cc(F)ccc3OC)ncn2)nc1 [Example 56, 5-ethyl-N-(6-(5-fluoro-2-methoxyphenyl)pyrimidin-4-yl)pyridine-2-carboxamide] here?
A: 176 °C

Q: For CCc1cc(C(=O)Nc2cc(-c3cc(F)ccc3OC)ncn2)no1 [Example 58, 5-ethyl-N-(6-(5-fluoro-2-methoxyphenyl)pyrimidin-4-yl)isoxazole-3-carboxamide], which melting point is on record?
A: 175 °C

Q: With COc1ccc(F)cc1-c1cc(NC(=O)c2cnn3cc(C)cnc23)ncn1 [Example 59, N-(6-(5-fluoro-2-methoxyphenyl)pyrimidin-4-yl)-6-methylpyrazolo[1,5-a]pyrimidine-3-carboxamide] as the compound, how does the melting point read?
A: 265 °C

Q: Which melting point does the source give for COc1ccc(F)cc1-c1cc(NC(=O)c2cc(=O)[nH]c3ccccc23)ncn1 [Example 60, N-(6-(5-fluoro-2-methoxyphenyl)pyrimidin-4-yl)-1,2-dihydro-2-oxoquinoline-4-carboxamide] here?
A: 276 °C

Q: With COc1ccc(F)cc1-c1cc(NC(=O)C(=O)c2ccccc2)ncn1 [Example 61, N-(6-(5-fluoro-2-methoxyphenyl)pyrimidin-4-yl)-2-oxo-2-phenylacetamide] as the compound, how does the melting point read?
A: 146 °C

Q: For COc1ccc(F)cc1-c1cc(NC(=O)Cc2cc(F)c(F)cc2F)ncn1 [Example 62, N-(6-(5-fluoro-2-methoxyphenyl)pyrimidin-4-yl)-2-(2,4,5-trifluorophenyl)acetamide], which melting point is on record?
A: 208 °C

test system: LPS induced THP-1 macrophages; experiment: In vitro THP-1 assay, model of cytokine inhibition; type: cell-based, human; conditions: differentiated THP-1 cells, 60 min pre-incubation, LPS 4-48 h, ELISA, versus vehicle (DMSO)
Protocol: The human THP-1 cell line can be utilized as an in vitro model of cytokine expression as mediated by Lipopolysaccharide (LPS) or Tumor Necrosis Factorα [TNFα].
Monocytic THP-1 cells (ATCC; TIB-202) can be differentiated into macrophage-like cells expressing pro-inflammatory cytokines like TNFα, IL6 and IL1β upon induction with LPS or by TNFα (autocrine induction) itself.
THP-1 cells are grown in modified RPMI-1640 medium (ATCC, Cat. No. 30-2001) supplemented with 10% FCS and 1% Pen/Strep. For cytokine inhibition assays, cells are seeded at a density of 5×10^5 cells/ml into 6-well plates in standard growth medium supplemented with 100 ng/ml PMA (Sigma, P1585) to induce differentiation into macrophage-like cells. After 24 hours, the medium is replaced with standard growth medium (without PMA) and the cells are incubated for another 48 hours to complete differentiation.
After 72 h of differentiation, the medium is replaced with serum free growth medium, and CDK-inhibiting compounds as well as reference compounds such as positive and negative controls, each dissolved in DMSO are added at concentrations ranging from 0.5 to 5 μM (final concentration of DMSO in the well is 0.1%). Cells are incubated for 60 min with compounds prior to stimulation with 100 ng/ml LPS (Sigma, L2630) for another 4-48 hours. Supernatants are collected and assayed immediately for cytokine expression, e.g. for TNFα, IL-6 and IL-1b using commercially available sandwich ELISA assays (eBioscience, Cat. No 88-7346, 88-7066, 88-7010) or kept frozen at […] until evaluation.
Concentrations of TNFα, IL6 and IL1β within the cell culture supernatants are measured by using commercial ELISA Kits (eBioscience) according to the manufacturers instructions.
CDK-inhibitory compounds #1A, 16A, 20A, and 25A were administered to differentiated THP-1 cells in triplicates as described above (see section 2.). After 60 min of pre-incubation with test or reference compound (SB203580, a p38 inhibitor and BMS345541, an IKK-inhibitor) alone, cells were stimulated with LPS. After incubation for 4-48 h, supernatants were collected and ELISA based determinations of cytokine supernatant concentrations were performed as described in section 3, supra.

Q: Which “IL6 protein concentration in the cell supernatant” value does the source give for COc1ccccc1-c1cc(NC(=O)C(C)(C)C)ncn1 [Compound 25A, N-[6-(2-methoxy-phenyl)-pyrimidin-4-yl]-2,2-dimethyl-propionamide] here?
A: significant inhibitory effect

Q: What about the “TNFα protein concentration in the cell supernatant” value of the same compound?
A: significant inhibitory effect
